According to patent US20150087627A1, “COMBINATION OF KINASE INHIBITORS AND USES THEREOF” (Intellikine LLC, priority 2011, published 2015):
Where two headings read alike, the source gives them in different places.

Experiments:
Assay type in all cases: biochemical
PI3K α (p110α/p85α) = biological target: T1, PI3K α (p110α/p85α) (Homo sapiens, UniProt P42336); assay: PI 3-Kinase (human) HTRF assay, PI3K α; settings: read-out: PI3K α IC50
T1 construct: purchased Upstate / Millipore Corporation

PI3K β (p110β/p85α) = biological target: T2, PI3K β (p110β/p85α) (Homo sapiens, UniProt P42338); assay: PI 3-Kinase (human) HTRF assay, PI3K β; settings: read-out: PI3K β IC50
T2 construct: purchased Upstate / Millipore Corporation
T2 sequence (P42338 whole entry): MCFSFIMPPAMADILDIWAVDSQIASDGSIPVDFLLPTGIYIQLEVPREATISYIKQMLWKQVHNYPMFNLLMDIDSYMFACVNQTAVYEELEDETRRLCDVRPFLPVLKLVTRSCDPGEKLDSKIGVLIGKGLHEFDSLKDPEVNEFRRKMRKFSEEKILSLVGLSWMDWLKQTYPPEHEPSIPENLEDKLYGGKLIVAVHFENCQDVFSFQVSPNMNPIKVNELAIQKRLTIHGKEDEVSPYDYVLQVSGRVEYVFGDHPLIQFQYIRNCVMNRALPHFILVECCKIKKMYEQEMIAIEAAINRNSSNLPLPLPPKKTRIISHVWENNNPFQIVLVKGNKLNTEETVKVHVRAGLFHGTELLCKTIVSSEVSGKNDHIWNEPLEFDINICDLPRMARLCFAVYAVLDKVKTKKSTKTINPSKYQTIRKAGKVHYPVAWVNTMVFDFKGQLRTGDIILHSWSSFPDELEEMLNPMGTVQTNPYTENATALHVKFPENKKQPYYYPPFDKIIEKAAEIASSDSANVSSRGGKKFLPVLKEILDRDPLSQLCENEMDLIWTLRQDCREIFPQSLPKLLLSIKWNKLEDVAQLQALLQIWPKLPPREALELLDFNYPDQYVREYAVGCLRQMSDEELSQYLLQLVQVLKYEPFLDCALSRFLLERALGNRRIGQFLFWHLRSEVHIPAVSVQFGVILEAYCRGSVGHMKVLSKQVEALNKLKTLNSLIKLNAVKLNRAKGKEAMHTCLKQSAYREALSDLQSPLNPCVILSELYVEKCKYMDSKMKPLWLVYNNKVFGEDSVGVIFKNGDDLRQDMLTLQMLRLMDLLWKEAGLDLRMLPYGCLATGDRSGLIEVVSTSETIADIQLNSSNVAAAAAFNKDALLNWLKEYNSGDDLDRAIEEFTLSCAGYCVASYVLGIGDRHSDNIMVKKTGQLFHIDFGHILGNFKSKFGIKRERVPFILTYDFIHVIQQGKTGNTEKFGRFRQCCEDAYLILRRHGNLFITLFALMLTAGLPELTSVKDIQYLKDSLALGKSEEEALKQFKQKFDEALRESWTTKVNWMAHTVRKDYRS
T2 sequence (P27986 whole entry partner): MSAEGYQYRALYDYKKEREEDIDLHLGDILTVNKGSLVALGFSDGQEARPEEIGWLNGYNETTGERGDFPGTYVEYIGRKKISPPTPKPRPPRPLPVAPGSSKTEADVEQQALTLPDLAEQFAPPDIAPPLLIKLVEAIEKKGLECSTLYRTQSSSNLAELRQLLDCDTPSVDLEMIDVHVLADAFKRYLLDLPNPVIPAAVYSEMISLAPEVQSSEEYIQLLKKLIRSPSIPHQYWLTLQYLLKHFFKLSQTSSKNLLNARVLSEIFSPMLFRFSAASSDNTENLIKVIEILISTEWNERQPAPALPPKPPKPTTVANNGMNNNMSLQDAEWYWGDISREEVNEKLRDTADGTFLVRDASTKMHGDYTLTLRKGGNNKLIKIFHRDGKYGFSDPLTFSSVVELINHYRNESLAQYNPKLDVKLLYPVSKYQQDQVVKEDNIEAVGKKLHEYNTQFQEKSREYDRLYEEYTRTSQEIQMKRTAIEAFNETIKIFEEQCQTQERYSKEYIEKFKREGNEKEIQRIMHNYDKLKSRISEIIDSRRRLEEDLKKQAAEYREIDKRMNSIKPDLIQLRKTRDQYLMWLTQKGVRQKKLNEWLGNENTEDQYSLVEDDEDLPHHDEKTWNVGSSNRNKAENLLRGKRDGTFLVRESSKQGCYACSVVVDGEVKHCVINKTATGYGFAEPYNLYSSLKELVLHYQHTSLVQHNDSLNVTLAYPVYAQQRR

PI3K δ = biological target: T3, PI3K δ (Homo sapiens, UniProt O00329); assay: PI 3-Kinase (human) HTRF assay, PI3K δ; settings: read-out: PI3K δ IC50
T3 construct: purchased Upstate / Millipore Corporation
T3 sequence (O00329 whole entry): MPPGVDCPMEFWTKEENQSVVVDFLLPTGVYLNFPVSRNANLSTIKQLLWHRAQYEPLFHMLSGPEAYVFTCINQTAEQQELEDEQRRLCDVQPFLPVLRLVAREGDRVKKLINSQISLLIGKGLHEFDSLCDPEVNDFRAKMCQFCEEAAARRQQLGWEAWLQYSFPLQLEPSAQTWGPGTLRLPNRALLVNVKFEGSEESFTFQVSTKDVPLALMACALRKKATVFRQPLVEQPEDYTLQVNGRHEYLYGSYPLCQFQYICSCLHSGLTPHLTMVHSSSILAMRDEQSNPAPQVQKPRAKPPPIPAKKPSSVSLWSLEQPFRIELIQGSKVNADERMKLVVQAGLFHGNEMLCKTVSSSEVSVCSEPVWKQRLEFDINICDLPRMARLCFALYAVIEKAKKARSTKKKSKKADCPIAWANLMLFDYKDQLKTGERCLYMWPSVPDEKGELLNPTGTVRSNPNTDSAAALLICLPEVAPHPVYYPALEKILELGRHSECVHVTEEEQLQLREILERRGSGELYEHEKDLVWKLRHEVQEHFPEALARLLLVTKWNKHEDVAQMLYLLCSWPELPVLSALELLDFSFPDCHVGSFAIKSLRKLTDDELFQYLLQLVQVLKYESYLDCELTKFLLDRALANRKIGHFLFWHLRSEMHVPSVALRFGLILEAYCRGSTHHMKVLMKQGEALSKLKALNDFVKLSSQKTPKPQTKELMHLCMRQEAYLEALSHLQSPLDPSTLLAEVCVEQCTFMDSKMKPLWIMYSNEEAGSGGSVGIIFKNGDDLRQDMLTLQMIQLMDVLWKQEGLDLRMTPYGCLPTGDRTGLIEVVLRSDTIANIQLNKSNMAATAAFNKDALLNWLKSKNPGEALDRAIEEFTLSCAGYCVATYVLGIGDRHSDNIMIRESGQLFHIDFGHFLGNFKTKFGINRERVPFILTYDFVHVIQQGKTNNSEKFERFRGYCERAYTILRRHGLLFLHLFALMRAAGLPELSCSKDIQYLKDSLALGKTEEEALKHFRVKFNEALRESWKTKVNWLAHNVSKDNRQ
T3 sequence (P27986 whole entry partner): as the sequence (P27986 whole entry partner) above

T1 sequence (P42336 whole entry): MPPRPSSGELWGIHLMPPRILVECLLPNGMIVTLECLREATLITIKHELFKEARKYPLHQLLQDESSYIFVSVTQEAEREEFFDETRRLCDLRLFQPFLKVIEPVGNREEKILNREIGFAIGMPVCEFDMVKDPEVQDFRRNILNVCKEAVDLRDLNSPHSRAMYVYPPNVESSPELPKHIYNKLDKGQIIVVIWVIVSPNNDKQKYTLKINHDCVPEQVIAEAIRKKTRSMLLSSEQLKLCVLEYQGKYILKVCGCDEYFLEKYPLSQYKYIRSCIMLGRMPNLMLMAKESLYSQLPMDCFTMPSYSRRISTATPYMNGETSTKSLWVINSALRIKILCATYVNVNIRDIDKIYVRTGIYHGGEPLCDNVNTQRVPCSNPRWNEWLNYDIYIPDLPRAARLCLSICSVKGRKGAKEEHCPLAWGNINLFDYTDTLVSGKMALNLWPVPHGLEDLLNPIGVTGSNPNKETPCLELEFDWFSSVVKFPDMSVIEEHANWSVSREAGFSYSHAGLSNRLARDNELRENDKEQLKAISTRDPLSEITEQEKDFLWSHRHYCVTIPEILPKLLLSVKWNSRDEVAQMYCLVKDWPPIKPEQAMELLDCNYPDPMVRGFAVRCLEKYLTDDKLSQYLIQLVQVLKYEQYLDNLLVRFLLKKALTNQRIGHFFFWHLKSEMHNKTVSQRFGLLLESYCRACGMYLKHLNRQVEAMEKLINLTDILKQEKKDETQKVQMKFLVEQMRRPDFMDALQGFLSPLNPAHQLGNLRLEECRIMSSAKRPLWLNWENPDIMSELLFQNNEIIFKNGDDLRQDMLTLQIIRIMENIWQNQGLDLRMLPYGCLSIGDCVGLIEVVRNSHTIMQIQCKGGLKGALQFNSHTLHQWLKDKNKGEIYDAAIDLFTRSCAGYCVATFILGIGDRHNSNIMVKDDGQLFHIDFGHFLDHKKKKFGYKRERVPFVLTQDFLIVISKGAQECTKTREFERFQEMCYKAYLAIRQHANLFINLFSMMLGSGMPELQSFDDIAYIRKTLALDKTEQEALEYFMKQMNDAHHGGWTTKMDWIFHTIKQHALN
T1 sequence (P27986 whole entry partner): as the sequence (P27986 whole entry partner) above

SMILES	IC50 (PI3K α (p110α/p85α))	IC50 (PI3K β (p110β/p85α))	IC50 (PI3K δ)	IC50 (PI3K α (p110α/p85α); Table 4 (PI3K α inhibitors))	IC50 (PI3K δ; Table 4 (PI3K α inhibitors))	IC50 (PI3K β (p110β/p85α); Table 4 (PI3K α inhibitors))
CC(Oc1nc(-c2ccc3oc(N)nc3c2)cnc1N)C(F)(F)F (stereo not shown) [Compound 239]	< 10000 nM	< 1000 nM	< 10000 nM	–	–	–
CN1CCN(c2cnc3ccc(-c4ccc5oc(N)nc5c4)cc3n2)C(=O)C1 [Compound 390]	< 10000 nM	–	–	–	–	–
C[C@@H]1CN(c2cnc3ccc(-c4ccc5oc(N)nc5c4)cc3n2)CCN1 [Compound 179]	< 100 nM	< 1000 nM	–	–	–	–
CN1CCN(C(=O)c2cnc3ccc(-c4ccc5nc(N)oc5c4)cn23)CC1 [Compound 145]	< 1000 nM	< 10000 nM	> 10000 nM	–	–	–
CN(C)[C@H]1CCN(c2cnc3ccc(-c4ccc5oc(N)nc5c4)cc3n2)C1 [Compound 382]	< 100 nM	< 1000 nM	–	–	–	–
Nc1nc2cc(-c3ccc4ncc(-c5cn[nH]c5)nc4c3)ccc2o1 [Compound 78]	< 100 nM	< 1000 nM	< 1000 nM	–	–	–
COc1ccc(-c2ccc3ncc(C(=O)N4CCOCC4)n3c2)cc1NS(=O)(=O)c1ccccc1 [Compound 455]	< 10000 nM	> 10000 nM	> 10000 nM	–	–	–
CC(=O)Nc1n[nH]c2ccc(-c3ccc4oc(N)nc4c3)cc12 [Compound 431]	> 10000 nM	> 10000 nM	> 10000 nM	–	–	–
CCN(CC)CCCn1cnc2ccc(-c3ccc4oc(N)nc4c3)cc2c1=O [Compound 281]	< 1000 nM	> 10000 nM	< 10000 nM	–	–	–
Nc1nc2cc(-c3ccc4ncc(C(=O)N5CCC(N)CC5)n4c3)ccc2o1 [Compound 204]	< 100 nM	< 1000 nM	> 10000 nM	–	–	–
Nc1nc2cc(-c3ccc4ncc(C#CC5CC5)n4c3)ccc2o1 [Compound 39]	< 100 nM	–	< 100 nM	–	–	–
Cc1c(-c2ccc3oc(N)nc3c2)ccc2ncc(C(=O)N3CCOCC3)n12 [Compound 349]	> 10000 nM	> 10000 nM	> 10000 nM	–	–	–
C[C@@H]1CN(C2CN(c3cnc4ccc(-c5ccc6oc(N)nc6c5)nc4c3)C2)CCN1C [Compound 608]	–	–	–	< 100 nM	< 1000 nM	–
C[C@H]1CN(c2cnc3ccc(-c4ccc5nc(N)sc5c4)cc3n2)CCN1 [Compound 308]	< 1000 nM	< 1000 nM	> 10000 nM	–	–	–
Nc1nc2cc(-c3ccc4ncc(NCCCN5CCCC5)nc4c3)ccc2o1 [Compound 221]	< 100 nM	< 1000 nM	< 100 nM	–	–	–
Nc1nc2cc(-c3ccc4ncc(N5CCN(C6CC6)CC5)nc4c3)ccc2o1 [Compound 261]	< 100 nM	< 1000 nM	> 10000 nM	–	–	–
NC(=O)[C@@H]1CCCN1C(=O)C1CN(c2cnc3ccc(-c4ccc5oc(N)nc5c4)cc3n2)C1 [Compound 283]	< 100 nM	> 10000 nM	> 10000 nM	–	–	–
CC(=O)Nc1nc2ccc(-c3cc(F)c4oc(N)nc4c3)cc2s1 [Compound 434]	< 100 nM	< 100 nM	< 100 nM	–	–	–
Nc1nc2cc(-c3ccc4ncc(C(=O)N5CCOCC5)n4c3)c(F)cc2o1 [Compound 372]	< 1000 nM	< 10000 nM	< 10000 nM	–	–	–
C[C@H]1CN(c2cnc3cccc(-c4ccc5oc(N)nc5c4)c3n2)CCN1 [Compound 342]	> 10000 nM	> 10000 nM	> 10000 nM	–	–	–
C[C@H]1CN(C2CN(C(=O)c3cnc4ccc(-c5ccc6oc(N)nc6c5)cn34)C2)CCN1C [Compound 512]	< 100 nM	< 10000 nM	< 1000 nM	–	–	–
Cc1c(-c2ccc3oc(N)nc3c2)ccc2ncc(N3CC(N4CCNCC4)C3)nc12 [Compound 386]	< 100 nM	> 10000 nM	> 10000 nM	–	–	–
NCC(=O)N1CCN(c2cnc3ccc(-c4ccc5oc(N)nc5c4)nc3n2)CC1 [Compound 584]	–	–	–	< 100 nM	–	–
Nc1nc2c(-c3ccc4ncc(C(=O)N5CCOCC5)n4c3)cccc2o1 [Compound 496]	< 1000 nM	< 10000 nM	> 10000 nM	–	–	–
CN(C)CC(=O)N1CCC(Nc2ncnc3ccc(-c4ccc5oc(N)nc5c4)cc23)CC1 [Compound 103]	< 100 nM	< 1000 nM	< 1000 nM	–	–	–
C[C@@H]1CN(C2CN(C(=O)c3cnc4ccc(-c5ccc6oc(N)nc6c5)cn34)C2)CCN1 [Compound 511]	< 100 nM	< 10000 nM	< 1000 nM	–	–	–

SMILES	IC50 (PI3K α (p110α/p85α))	IC50 (PI3K β (p110β/p85α))	IC50 (PI3K δ)	IC50 (PI3K α (p110α/p85α); Table 4 (PI3K α inhibitors))	IC50 (PI3K δ; Table 4 (PI3K α inhibitors))	IC50 (PI3K β (p110β/p85α); Table 4 (PI3K α inhibitors))
Nc1nc2cc(-c3ccc4ncc(N5CCOCC5)nc4n3)ccc2o1 [Compound 553]	–	–	–	< 100 nM	> 10000 nM	< 1000 nM
Nc1nc2cc(-c3ccc4ncc(C(=O)N5CCOCC5)n4c3)c(Cl)cc2o1 [Compound 370]	< 10000 nM	> 10000 nM	> 10000 nM	–	–	–
O=C(c1cnc2ccc(-c3ccc(Cl)c(NS(=O)(=O)c4ccccc4)c3)cn12)N1CCOCC1 [Compound 459]	< 1000 nM	> 10000 nM	> 10000 nM	–	–	–
Nc1nc2cc(-c3ccc4ncc(C(=O)N5CCOCC5)n4c3)cnc2o1 [Compound 400]	< 100 nM	< 10000 nM	> 10000 nM	–	–	–
C[C@H]1CN(c2cnc3ccc(-c4ccc5oc(N)nc5c4)cc3n2)CCN1 [Compound 178]	< 100 nM	< 100 nM	< 1000 nM	–	–	–
CN1CCN(c2cnc3ccc(-c4ccc5oc(N)nc5c4)nc3n2)CC1 [Compound 555]	–	–	–	< 1000 nM	–	< 1000 nM
Nc1nc2cc(-c3ccc4ncc(-c5cccnc5)nc4n3)ccc2o1 [Compound 554]	–	–	–	< 1000 nM	> 10000 nM	–
COc1ccc(-c2ccc3ncc(C(=O)N4CCOCC4)n3c2)cc1S(=O)(=O)Nc1ccccc1 [Compound 444]	< 10000 nM	> 10000 nM	> 10000 nM	–	–	–
O=C(c1cnc2ccc(-c3cnc(Cl)c(NS(=O)(=O)c4ccccc4F)c3)cn12)N1CCOCC1 [Compound 452]	< 100 nM	< 1000 nM	< 100 nM	–	–	–
C[C@H]1CN(c2cnc3ccc(-c4cccc5c(N)nsc45)cc3n2)CCN1 [Compound 321]	> 10000 nM	> 10000 nM	> 10000 nM	–	–	–
Nc1nc2cc(-c3ccc4ncc(N5CC[C@@H](N6CCOCC6)C5)nc4c3)ccc2o1 [Compound 376]	< 100 nM	< 10000 nM	< 10000 nM	–	–	–
C[C@H]1CN(c2cnc3ccc(-c4ccc5oc(N)nc5c4)nc3n2)CCN1 [Compound 552]	–	–	–	< 1000 nM	–	< 100 nM
C[C@@H]1CN(c2cnc3ccc(-c4ccc5oc(N)nc5c4)nc3c2)CCN1 [Compound 599]	–	–	–	< 100 nM	–	< 1000 nM
CC(C)(N)C(=O)N1CCN(c2ccc3ncc(-c4ccc5oc(N)nc5c4)cc3n2)CC1 [Compound 633]	–	–	–	–	> 10000 nM	> 10000 nM
Nc1nc2cc(-c3cnc4ccc(N5CCOCC5)nc4c3)ccc2o1 [Compound 624]	–	–	–	–	> 10000 nM	> 10000 nM
Nc1nc2cc(-c3ccc4ncc(C(=O)N5CC[C@H](O)C5)n4c3)ccc2o1 [Compound 264]	< 100 nM	< 10000 nM	–	–	–	–
C[C@@H]1CN(C2CN(c3cnc4ccc(-c5ccc6oc(N)nc6c5)nc4n3)C2)CCN1C [Compound 576]	–	–	–	< 100 nM	–	> 10000 nM
Nc1nc2cc(-c3ccc4ncc(C(=O)N5CC[C@@H](O)C5)n4c3)ccc2o1 [Compound 265]	< 100 nM	< 10000 nM	–	–	–	–
Nc1nc2cc(-c3ccc4ncc(-c5cccnc5)n4c3)ccc2o1 [Compound 37]	< 100 nM	–	< 100 nM	–	–	–
Nc1nc2cc(-c3ccc4ncc(-c5cccnc5)cc4n3)ccc2o1 [Compound 567]	–	–	–	< 100 nM	–	–
Nc1nc2cc(-c3ccc4ncc(C(=O)NCCOCCO)n4c3)ccc2o1 [Compound 550]	–	< 10000 nM	< 10000 nM	–	–	–
C[C@H]1CCCN1C(=O)c1cnc2ccc(-c3ccc4oc(N)nc4c3)cn12 [Compound 482]	< 100 nM	> 10000 nM	–	–	–	–
Nc1nc2cc(-c3ccc4ncc(N5CC(N6CCN(C7CC7)CC6)C5)nc4n3)ccc2o1 [Compound 620]	–	–	–	< 100 nM	–	–
Cn1ncc2c(-c3ccc4ncc(C(=O)N5CCOCC5)n4c3)cncc21 [Compound 537]	–	> 10000 nM	> 10000 nM	–	–	–
C[C@@H]1COCCN1C1CN(c2cnc3ccc(-c4ccc5oc(N)nc5c4)nc3n2)C1 [Compound 600]	–	–	–	–	> 10000 nM	> 10000 nM
